Columns and labels:
[1] = tested on: human lung mast cells (HLMC); test: Histamine release assay, anti-IgE-induced histamine release from purified human lung mast cells; type: cell-based
Method: (§1) Lung fragments were washed with Tyrode's buffer containing (g/l): NaCl, 8.0; KCl, 0.2; NaH2PO4, 0.05; and glucose, 1.0. The buffer was titrated to pH 7.2 by the addition of NaHCO3. Mast cell isolation and elutriation were performed in a buffer designated “TGMD”, prepared from Tyrode's buffer to which the following were added (g/l): gelatin (1.0), magnesium (0.25; 1 mM), and DNase (0.01). The buffer designated “PAGCM” was a Pipes-albumin (0.003%) buffer containing (g/l): glucose (1.0), CaCl2.2H2O, 0.14 (1 mM); and MgCl2.6H2O, 0.2 (1 mM).
(§2) Mast cells were dispersed from human lung by methods previously reported (Schulman et al., J. Immunol. 29:2662-2667 (1982); Schulman et al., J. Immunol. 131:1936-1941 (1983)). Briefly, lung specimens obtained at thoracotomy for bronchogenic carcinoma were finely minced and extensively washed in divalent cation-free Tyrode's buffer. Fragments were briefly incubated in a mixture of pronase (2 mg/ml) and chymopapain (0.5 mg/ml). Freed cells were harvested through Nytex nylon cloth (150 microns pore size). Residual fragments were further exposed to a mixture of collagenase (1 mg/ml) and elastase (10 units/ml). All incubations and washes were performed at 37° C.; recovered cells were immediately washed three times in large volumes of TGMD. Mast cell purities in these human lung cell suspensions ranged from 1-8% as determined by alcian blue staining (Gilbert et al., Blood 46:279-285 (1975)). Lung mast cells were further purified, by counter-current elutriation, using previously reported methods (Schulman et al., J. Immunol. 131:1936-1941 (1983)). Mast cells were purified (80->98%) by flotation of enriched elutriation fractions through a discontinuous Percoll gradient (Ishizaka et al., J. Immunol. 130:2357-2362 (1983)). Further mast cell purification was accomplished by immunomagnetic negative selection against CD2, CD3, CD4, CD8, CD14, CD16, CD21 and HLADR to ensure against contamination by T cells, B calls, NK cells, monocytes, and dendritic cells prior to mast cell stimulation using previously described methods (Jaffe et al., Am. J. Respir. Cell. Mol. Biol. 13:665-675 (1995); Jaffe et al., Am. J. Respir. Cell. Mol. Biol. 15:473-481 (1996)).
The concentrations of anti-IgE produce 30-70% of maximal release. Twenty minutes following activation, cells were rapidly pelleted and supernatants removed for histamine analysis. Histamine release was expressed as the net histamine released divided by the total histamine content×100%. The total cellular histamine content was determined following cell lysis with 2% perchloric acid. Spontaneous histamine release was always <2% of cellular histamine and generally <1%. Histamine measurements were performed using the automated spectrofluorometric method of Technicon (Tarrytown, N.Y.). Variations between replicates were consistently <5%. All assays were run in duplicates.

human P2Y1 receptor = human P2Y1 receptor (Homo sapiens, UniProt P47900); settings: cited from earlier work
[2] = tested on: human lung mast cells (HLMC); test: Direct induction of histamine release from HLMC without anti-IgE; type: cell-based; settings: for direct induction of histamine release: no anti-IgE
Method: as §1
as §2, with “Further mast cell purification was accomplished by immunomagnetic negative selection against CD2, CD3, CD4, CD8, CD14, CD16, CD21 and HLADR to ensure against contamination by T cells, B calls, NK cells, monocytes, and dendritic cells prior to mast cell stimulation using previously described methods (Jaffe et al., Am. J. Respir. Cell. Mol. Biol. 13:665-675 (1995); Jaffe et al., Am. J. Respir. Cell. Mol. Biol. 15:473-481 (1996)).” left out
The concentrations of anti-IgE produce 30-70% of maximal release. […] Histamine release was expressed as the net histamine released divided by the total histamine content×100%. The total cellular histamine content was determined following cell lysis with 2% perchloric acid. […]

HLMC = test: Functional ectoATPase assay of HLMC (HPLC detection of purine compounds); type: in vitro ADME, human; settings: 10^−4M ATP, anti-IgE activated HLMC, 15 + 20 min incubation, n=3
Method: The supernatants were separated from the cells by centrifugation at 14,000-×g for 5 minutes and kept at −20° C. until analyzed by HPLC. The method of Stocci et al., Anal. Biochem. 167:181-90 (1987) was used for the detection of the purine compounds. The HPLC system consisted of Waters 600E controller, Waters Novapak 4 μm 3.9×150 mm C18 column, and a 990 photodiode array detector. The solvent consisted of 0.1 mM KH2PO4, 8 mM tetrabutylammonium hydrogen sulfate (TAHS) pH 6.0 (buffer A), and 0.1 mM KH2PO4, 8 mM TAHS pH 6.0 with 30% (v/v) methanol (buffer B). The flow rate was 1 ml/min. with the following gradient program: 100% A to 2.5 min., linear gradient to 20% B at 5 min, to 40% B at 10 min., to 100% at 13 min., then 100% B to 30 min. 100 μl of supernatant (neat) was injected and the separation monitored at 254 nm over the 30 minute run time. The ATP peak areas were calculated and compared among the conditions. […] The data are the result of three experiments.

[3] = tested on: rat peritoneal mast cells; settings: cited from earlier work
[4] = Example 3, control 9.9±3.1%, n=10
[5] = Example 4, 10^−4M (equimolar), control 14.9±3.9%, six experiments, p<0.05
[6] = Example 5, 10^−4M, control 10.3±3.0%, n=6
[7] = Example 5, 10^−5M, control 10.3±3.0%, n=6
[8] = Example 3, control 9.9±3.1%, ten experiments

Sequence of human P2Y1 receptor (P47900 whole entry): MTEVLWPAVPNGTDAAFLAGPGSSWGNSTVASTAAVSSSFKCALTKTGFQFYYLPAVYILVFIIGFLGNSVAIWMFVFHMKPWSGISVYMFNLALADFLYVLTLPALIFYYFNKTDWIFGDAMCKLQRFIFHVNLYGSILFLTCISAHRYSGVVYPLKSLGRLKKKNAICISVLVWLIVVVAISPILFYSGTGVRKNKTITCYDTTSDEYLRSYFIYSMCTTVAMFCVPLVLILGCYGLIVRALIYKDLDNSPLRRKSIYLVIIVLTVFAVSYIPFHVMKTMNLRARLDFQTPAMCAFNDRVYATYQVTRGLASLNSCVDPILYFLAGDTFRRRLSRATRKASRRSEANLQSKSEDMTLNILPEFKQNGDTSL

## CSc1nc(N)c2ncn([C@@H]3O[C@H](COP(=O)(O)OP(=O)(O)OP(=O)(O)O)[C@@H](O)[C@H]3O)c2n1 [2-mSATP, 2methylthio-ATP]
[1]; [4]
  anti-IgE-induced histamine release: 14.3±3.9%

## Nc1ncnc2c1ncn2[C@@H]1O[C@H](COP(=O)(O)O)[C@@H](O)[C@H]1OP(=O)(O)O [A2P5P, adenosine-2′-phosphate-5′-phosphate]
Human P2Y1 receptor
  agonist activity at the human P2Y1 receptor: Partial agonists

## Nc1ncnc2c1ncn2[C@@H]1O[C@H](COP(=O)(O)O)[C@@H](OP(=O)(O)O)[C@H]1O [A3P5P, adenosine-3′-phosphate-5′-phosphate]
Human P2Y1 receptor
  agonist activity at the human P2Y1 receptor: devoid of agonist activity

## Nc1ncnc2c1ncn2[C@@H]1O[C@H](COP(=O)(O)OS(=O)(=O)O)[C@@H](OP(=O)(O)O)[C@H]1O [A3P5PS, adenosine-3′-phosphate-5′-phosphosulfate]
Human P2Y1 receptor
  agonist activity at the human P2Y1 receptor: devoid of agonist activity

## Nc1ncnc2c1ncn2[C@@H]1O[C@H](COP(=O)(O)OP(=O)(O)OP(=O)(O)O)[C@@H](O)[C@H]1O [ATP, adenosine 5′-triphosphate]
[1]; 10^−3M, n=9, control 10.1+3.4%, not statistically significant (p>0.05)
  anti-IgE-induced histamine release: 14.0+2.4%
[1]; 10^−4M, 9 of 9 experiments, control 10.1+3.4%, p<0.05
  effect on anti-IgE-induced histamine release: enhanced histamine release
[1]; 10^−4M, high responders, control 24.2±4.2%, n=7
  anti-IgE-induced histamine release: 32.9±4.5%
[1]; 10^−4M, high responders, n=7
  percent enhancement of anti-IgE-induced histamine release: 35%
[1]; 10^−4M, low responders (<3%), control 1.8±0.4%, n=6
  anti-IgE-induced histamine release: 13.5±2.7%
[1]; 10^−4M, low responders, n=6
  percent enhancement of anti-IgE-induced histamine release: 750%
[1]; 10^−4M, lowest and highest anti-IgE responsive preparations
  enhancement of anti-IgE-induced histamine release (absolute): 8-10%
[1]; 10^−5M, 9 of 9 experiments, control 10.1+3.4%, p<0.05
  effect on anti-IgE-induced histamine release: enhanced histamine release
[1]; 10^−6M, six preparations
  effect on anti-IgE-induced histamine release: no effects
[1]; ATP 10^−4M, 20 anti-IgE-responsive preparations, control 10.9+2.7%, p<0.01
  anti-IgE-induced histamine release: 19.2+2.9%
[1]; [4]
  anti-IgE-induced histamine release: 17.7±4.1%
[1]; [5]
  anti-IgE-induced histamine release: 23.0±4.7%
[1]; [6]
  anti-IgE-induced histamine release: significantly enhanced
[1]; [7]
  anti-IgE-induced histamine release: significantly enhanced
[1]; Example 9, ATP 10^4−M, control 11.2±5.3%, four experiments
  anti-IgE-induced histamine release: 15.7±7.1%
[1]; preincubation 10^−6-10^−3M, 3/23 preparations
  effect in preparations that failed to respond to anti-IgE alone: without effect
[2]; ATP 10^−7M-10^−3M, n=23
  direct induction of histamine release: did not directly induce histamine release
[2]; Ca^2+-free and Mg^2+-free media, results not shown
  histamine release on ATP challenge: failed to provoke histamine release
HLMC
  area under the ATP peak vs control (ATP alone without HLMC): no noticeable decrease
[3]; depressed by Ca^2+ and Mg^2+
  concentration of maximum mediator secretion: 2 µM
[3]; in the presence of millimolar Ca^2+
  concentration that inhibits mediator release: above 3 μM

## Cc1nc(N=Nc2ccc(S(=O)(=O)O)cc2S(=O)(=O)O)c(COP(=O)(O)O)c(C=O)c1O [PPADS, pyridzalphosphate-6-azophenyl-2′,4′-disulfonic acid]
[1]; Example 9, ATP alone 15.7±7.1%, no significant modulation
  anti-IgE-induced histamine release with ATP after preincubation with antagonist: 16.1±5.9%

## Nc1ncnc2c1ncn2[C@@H]1O[C@H](CO)[C@@H](O)[C@H]1O [adenosine]
[1]; Example 5, 10^−3 M, control 10.3±3.0%, n=6, p<0.05
  anti-IgE-induced histamine release: 5.3±1.9%
[1]; [6]
  anti-IgE-induced histamine release: 11.2±4.7%
[1]; [7]
  anti-IgE-induced histamine release: 13.4±5.6%
[2]; adenosine alone
  direct induction of histamine release: did not directly induce histamine release

## Nc1ncnc2c1ncn2[C@@H]1O[C@H](COP(=O)(O)CP(=O)(O)OP(=O)(O)O)[C@@H](O)[C@H]1O [α,βmATP, α,βmethylene-ATP]
[1]; [8]
  effect on anti-IgE-induced histamine release: enhanced
[3]
  induction of mediator release: inactive

## Nc1ncnc2c1ncn2[C@@H]1O[C@H](COP(=O)(O)OP(=O)(O)CP(=O)(O)O)[C@@H](O)[C@H]1O [β,γmATP, β,γmethylene-ATP]
[1]; [8]
  effect on anti-IgE-induced histamine release: enhanced
[3]
  induction of mediator release: inactive

## adenosine-2′-phosphate-5′-phosphoribose
Human P2Y1 receptor
  agonist activity at the human P2Y1 receptor: Partial agonists

## uracil triphosphate [UTP]
[1]; [5]
  anti-IgE-induced histamine release: 19.2±5.0%
[3]; 10^−4M
  achieving mediator release in comparison with ATP: almost inactive
